From ChEMBL document CHEMBL3045035, “Synthesis and insect antifeedant activity of stilbene derivatives against Brontispa longissima Larvae” (2013)

Legend:
[1] = system: Brontispa longissima; assay: Antifeedant activity against third-instar larval stage of Brontispa longissima in […] assessed as decrease in leaf surface consumption treated for 30 secs prior to larval infestation measured after 48 hr by leaf-dipping method; assay type: functional
[2] = system: Brontispa longissima; assay: Ratio of compound AFC50 to combrestatin A-4 AFC50 for third-instar larval stage of Brontispa longissima; assay type: functional

SMILES	AFC50 [1] [mg/mL]	pAFC50 [1]	Ratio [2]
COc1cc(/C=C\c2ccccc2)cc(OC)c1OC	0.529	0.28	–
COc1ccc(/C=C/c2cc(OC)c(OC)c(OC)c2)cc1O [E-COMBRETASTATIN A-4]	0.357	0.45	–
COc1ccc(/C=C\c2cc(OC)c(OC)c(OC)c2)cc1	0.327	0.48	–
Oc1ccc(/C=C/c2cc(O)cc(O)c2)cc1 [RESVERATROL]	0.816	–	–
COc1cc(/C=C\c2ccc3c(c2)OCO3)cc(OC)c1OC	0.731	0.14	–
COc1cc(/C=C\c2ccc(Cl)cc2)cc(OC)c1OC	1.634	-0.21	–
COc1ccc(/C=C(/C#N)c2cc(OC)c(OC)c(OC)c2)cc1O	0.431	0.36	–
COc1cc(/C=C\c2ccc([N+](=O)[O-])cc2[N+](=O)[O-])cc(OC)c1OC	1.05	-0.02	5
COc1cc(/C=C\c2ccc(OC(C)=O)cc2)cc(OC)c1OC	0.843	0.07	3
COc1ccc(/C=C\c2ccc(OC(C)=O)cc2)cc1OC(C)=O	2.501	-0.4	–
Oc1ccc(/C=C\c2ccccc2)cc1	1.161	-0.06	–
COc1ccc(/C=C\c2cc(OC)c(OC)c(OC)c2)cc1O [COMBRETASTATIN A4]	0.218	0.66	–
CC(=O)Oc1ccc(/C=C\c2ccc(OC(C)=O)c(OC(C)=O)c2)cc1	0.64	0.19	–
COc1ccc(/C=C(/CO)c2cc(OC)c(OC)c(OC)c2)cc1O	0.226	0.65	–
COc1ccc(/C=C\c2ccc(O)cc2)cc1[N+](=O)[O-]	1.301	-0.11	–
COc1cc(/C=C\c2ccc([N+](=O)[O-])cc2)cc(OC)c1OC	0.982	0.01	3
COc1cc(/C=C\c2ccc(O)cc2)cc(OC)c1OC	1.261	-0.1	–
COc1ccc(/C=C(/C(=O)O)c2cc(OC)c(OC)c(OC)c2)cc1O	1.461	-0.17	7
Oc1ccc(/C=C\c2ccc(Cl)cc2)cc1	0.412	0.39	–
Oc1ccc(/C=C\c2ccc3c(c2)OCO3)cc1	1.005	0	–
O=[N+]([O-])c1ccc(/C=C\c2ccc(O)cc2)cc1	1.185	-0.07	–
COc1ccc(/C=C(/C(N)=O)c2cc(OC)c(OC)c(OC)c2)cc1O	0.736	0.13	–
COc1cc(/C=C\c2cc(Cl)cc(Cl)c2)cc(OC)c1OC	2.234	-0.35	5
COC(=O)/C(=C/c1ccc(OC)c(O)c1)c1cc(OC)c(OC)c(OC)c1	1.453	-0.16	7
COc1ccc(/C=C\c2ccc(OC(C)=O)cc2)cc1	0.732	0.14	–
COc1cc(/C=C\c2ccc(OC(C)=O)c(OC(C)=O)c2)cc(OC)c1OC	1.918	-0.28	–
